EP0942911B1, “BENZOPYRANOPYRROLE AND BENZOPYRANOPYRIDINE ALPHA-1 ADRENERGIC COMPOUNDS” (Abbott Laboratories, priority 1996, dated 1998)
Where a name gives a salt, the structure may show the parent alone.

Experiments:
α-1B adrenoreceptor = biological target: T1, α-1B adrenoreceptor (Rattus norvegicus, UniProt P15823); experiment: cell-based; details: phenylephrine-induced contraction, Schild plot; for Kb: read-out: In Vitro Characterization (pA2) Rat Spleen (converted)
T1 construct: from tissue; host or cells: rat spleen
T1 sequence (P15823 1-515): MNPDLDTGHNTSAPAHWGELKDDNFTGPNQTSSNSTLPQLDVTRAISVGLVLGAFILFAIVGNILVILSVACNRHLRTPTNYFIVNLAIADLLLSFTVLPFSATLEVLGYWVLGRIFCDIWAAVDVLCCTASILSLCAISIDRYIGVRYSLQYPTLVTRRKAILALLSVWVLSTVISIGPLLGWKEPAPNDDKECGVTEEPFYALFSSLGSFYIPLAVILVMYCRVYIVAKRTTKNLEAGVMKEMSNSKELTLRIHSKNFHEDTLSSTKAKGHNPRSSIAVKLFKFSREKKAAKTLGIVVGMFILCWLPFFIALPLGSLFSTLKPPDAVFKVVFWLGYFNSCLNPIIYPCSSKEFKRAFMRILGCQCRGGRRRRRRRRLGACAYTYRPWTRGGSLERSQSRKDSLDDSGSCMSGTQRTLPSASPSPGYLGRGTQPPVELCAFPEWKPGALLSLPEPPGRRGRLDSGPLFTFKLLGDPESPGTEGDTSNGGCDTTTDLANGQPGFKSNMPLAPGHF
Outline: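 Phenylephrine dose-response curves for contraction were repeated against increasing test-agent concentrations. pA2 was derived by Schild plot [[…] vs log molarity of test agent].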

α-1 Adrenoceptors = experiment: Functional antagonism in rat aorta (method not described); format: cell-based
α-1A adrenoreceptor = experiment: Functional antagonism: inhibition of PE-induced contraction of canine prostate strips (Schild plot); format: cell-based; details: phenylephrine-induced contraction
From the text: Canine prostate strips were used in vitro as previously described (Hieble, J.P., Boyce, A.J. and Caine, M., Fed. Proc., 45: 2609-2614 (1986)), to determine antagonist potencies against phenylephrine-induced contractions.
Functional assays indicative of pharmacologically defined α-1 adrenoreceptors were used to further characterize compounds. Inhibition of phenylephrine (PE)-induced contraction of canine prostate smooth muscle can be correlated with α-1A adrenoreceptor activation. […] For each of these models, agonist dose response curves were repeated against increasing concentrations of test agent to derive a Schild plot [log ([…]) against log (molarity of test agent)] to determine the pA2.

Row | In Vitro Characterization (pA2) Rat Spleen (α-1B adrenoreceptor) | Compound | In Vitro Characterization (pA2) Rat Aorta (α-1 Adrenoceptors) | Kb (α-1B adrenoreceptor) [µM] | In Vitro Characterization (pA2) Dog Prostate (α-1A adrenoreceptor)
1 | 7.83 | 3-[4-((3aR,9bR)-cis-9-Methoxy-1,2,3,3a,4,9b-hexahydro-[1]-benzopyrano[3,4-c]pyrrol-2-yl]butyl]-7-methoxy-pyrido[3',2':4,5]thieno[3,2-d]pyrimidine-2,4(1H,3H)-dione hydrochloride [Example 33] | 9.15 |  | 
2 |  | COc1cccc2c1OC[C@H]1CN(CCn3c(=O)[nH]c4c(sc5ccccc54)c3=O)C[C@@H]21.Cl (racemic) [Example 67, 3-[2-((±)-cis-6-Methoxy-1,2,3,3a,4,9b-hexahydro-[1]-benzopyrano[3,4-c]pyrrol-2-yl)ethyl]-[1]benzthieno[3,2-d]pyrimidine-2,4(1H,3H)-dione hydrochloride] |  | 0.148 | 7.33
3 |  | Cl.O=c1[nH]c2c(sc3ccccc32)c(=O)n1CCN1C[C@@H]2COc3ccccc3[C@@H]2C1 (racemic) [Example 69, 3-[2-((±)-cis-1,2,3,3a,4,9b-hexahydro-[1]-benzopyrano[3,4-c]pyrrol-2-yl)ethyl]-[1]benzthieno[3,2-d]pyrimidine-2,4(1H,3H)-dione hydrochloride] |  |  | 6.91
4 |  | COc1cccc2c1[C@H]1CN(CCCCn3c(=O)[nH]c4c(sc5nccnc54)c3=O)C[C@@H]1CO2.Cl.Cl (racemic) [Example 74, 3-[4-((±)-trans-9-Methoxy-1,2,3,3a,4,9b-hexahydro-[1]-benzopyrano[3,4-c]pyrrol-2-yl)butyl]-pyrazino[2',3':4,5]thieno[3,2-d]pyrimidine-2,4(1H,3H)-dione dihydrochloride] |  | 0.00646 | 9.03
5 |  | COc1cccc2c1[C@@H]1CCN(CCCCn3c(=O)[nH]c4c(sc5ncccc54)c3=O)C[C@H]1CO2 (racemic) [Example 85, 3-[4-((±)-trans-10-Methoxy-1,3,4,4a,5,10b-hexahydro-2H-[1]-benzopyrano[3,4-c]pyrido-3-yl)butyl]-pyrido[3',2':4,5]thieno[3,2-d]pyrimidine-2,4(1H,3H)-dione dihydrochloride] |  |  | 8.6
6 |  | COc1cccc2c1[C@@H]1CN(CCCCn3c(=O)[nH]c4c(sc5cccnc54)c3=O)C[C@@H]1CO2 [Example 1, 3-[4-((3aR,9bR)-cis-9-Methoxy-1,2,3,3a,4,9b-hexahydro-[1]-benzopyrano[3,4-c]pyrrol-2-yl)butyl]-pyrido[2',3':4,5]thieno[3,2-d]pyrimidine-2,4(1H,3H)-dione hydrochloride] |  |  | 8.69
7 |  | COc1cccc2c1[C@H]1CN(CCCCn3c(=O)[nH]c4c(sc5cccnc54)c3=O)C[C@H]1CO2 [Example 2, 3-[4-((3aS,9bS)-cis-9-Methoxy-1,2,3,3a,4,9b-hexahydro-[1]-benzopyrano[3,4-c]pyrrol-2-yl)butyl]-pyrido[2',3':4,5]thieno[3,2-d]pyrimidine-2,4(1H,3H)-dione hydrochloride] |  |  | 7.95
8 |  | COc1cccc2c1[C@@H]1CN(CCCCn3c(=O)[nH]c4c(sc5cccnc54)c3=O)C[C@H]1CO2 [Example 3, 3-[4-((3aS,9bR)-trans-9-Methoxy-1,2,3,3a,4,9b-hexahydro-[1]-benzopyrano[3,4-c]pyrrol-2-yl)butyl]-pyrido[2',3':4,5]thieno[3,2-d]pyrimidine-2,4(1H,3H)-dione hydrochloride] |  |  | 9.43
9 |  | COc1cccc2c1[C@@H]1CN(CCCCn3c(=O)[nH]c4c(sc5ncc(Cl)nc54)c3=O)C[C@H]1CO2 [Example 13, 3-[4-((3aS,9bR)-trans-9-Methoxy-1,2,3,3a,4,9b-hexahydro-[1]-benzopyrano[3,4-c]pyrrol-2-yl)butyl]-8-chloro-pyrazino[2',3':4,5]thieno[3,2-d]pyrimidine-2,4(1H,3H)-dione hydrochloride] |  | 0.00407 | 9.91
10 |  | COc1ccc2sc3c(=O)n(CCCCN4C[C@H]5COc6cccc(OC)c6[C@@H]5C4)c(=O)[nH]c3c2n1 [Example 26, 3-[4-((3aS,9bR)-trans-9-Methoxy-1,2,3,3a,4,9b-hexahydro-[1]-benzopyrano[3,4-c]pyrrol-2-yl)butyl]-8-methoxy-pyrido[2',3':4,5]thieno[3,2-d]pyrimidine-2,4(1H,3H)-dione hydrochloride] |  | 0.00316 | 9.15
11 |  | COc1cccc2c1[C@@H]1CN(CCCCn3c(=O)[nH]c4c(sc5ncc(-c6ccccc6)nc54)c3=O)C[C@@H]1CO2 [Example 39, 3-[4-((3aR,9bR)-cis-9-Methoxy-1,2,3,3a,4,9b-hexahydro-[1]-benzopyrano[3,4-c]pyrrol-2-yl)butyl]-8-phenyl-pyrazino[2',3':4,5]thieno[3,2-d]pyrimidine-2,4(1H,3H)-dione hydrochloride] |  | 0.148 | 8.52
12 |  | COc1cccc2c1[C@@H]1CN(CCCCn3c(=O)[nH]c4c(sc5ncc(-c6ccccc6)nc54)c3=O)C[C@H]1CO2 [Example 50, 3-[4-((3aS,9bR)-trans-9-Methoxy-1,2,3,3a,4,9b-hexahydro-[1]-benzopyrano[3,4-c]pyrrol-2-yl)butyl]-8-phenyl-pyrazino[2',3':4,5]thieno[3,2-d]pyrimidine-2,4(1H,3H)-dione hydrochloride] |  | 0.316 | 8.45
13 |  | COc1cccc2c1[C@@H]1CCN(CCCCn3c(=O)[nH]c4c(sc5cccnc54)c3=O)C[C@H]1CO2 [Example 95, 3-[4-((4aS,10bR)-trans-10-Methoxy-1,3,4,4a,5,10b-hexahydro-2H-[1]-benzopyrano[3,4-c]pyrido-3-yl)butyl]-pyrido[2',3':4,5]thieno[3,2-d]pyrimidine-2.4(1H,3H)-dione dihydrochloride] |  | 0.0191 | 8.58
14 |  | COc1cccc2c1[C@@H]1CCN(CCCCn3c(=O)[nH]c4c(sc5ncc(Cl)nc54)c3=O)C[C@H]1CO2 [Example 97, 3-[4-((4aS,10bR)-trans-10-Methoxy-1,3,4,4a,5,10b-hexahydro-2H-[1]-benzopyrano[3,4-c]pyrido-3-yl)butyl]-8-chloro-pyrazino[2',3':4,5]thieno[3,2-d]pyrimidine-2,4(1H,3H)-dione dihydrochloride] |  | 0.0174 | 8.6
